Patent publication US20240197685A1, “SELECTIVE ANGIOTENSIN II RECEPTOR LIGANDS” (priority 2021, published 2024)
Where “and” joins values, the source holds several entries; their conditions need not be identical. Equal entries are not always repeated. Where two headings read alike, the source gives them in different places.

What was measured:
CYP3A4&5 = test: CYP inhibition, human liver microsomes; type: in vitro ADME; conditions: probe testosterone, substrate testosterone, read-out: CYP3A4&5 testosterone Inh %
CYP3A4 = biological target: T1, CYP3A4 (Homo sapiens, UniProt P08684); test: CYP inhibition, human liver microsomes; type: in vitro ADME; conditions: for inhibition at 10 µM: probe midazolam, substrate midazolam, human liver microsomes, read-out: CYP3A4 midazolam Inh %
T1 construct: tissue Eurofins protocol ITEMG232; host or cells: human liver microsomes
T1 sequence (P08684 whole entry): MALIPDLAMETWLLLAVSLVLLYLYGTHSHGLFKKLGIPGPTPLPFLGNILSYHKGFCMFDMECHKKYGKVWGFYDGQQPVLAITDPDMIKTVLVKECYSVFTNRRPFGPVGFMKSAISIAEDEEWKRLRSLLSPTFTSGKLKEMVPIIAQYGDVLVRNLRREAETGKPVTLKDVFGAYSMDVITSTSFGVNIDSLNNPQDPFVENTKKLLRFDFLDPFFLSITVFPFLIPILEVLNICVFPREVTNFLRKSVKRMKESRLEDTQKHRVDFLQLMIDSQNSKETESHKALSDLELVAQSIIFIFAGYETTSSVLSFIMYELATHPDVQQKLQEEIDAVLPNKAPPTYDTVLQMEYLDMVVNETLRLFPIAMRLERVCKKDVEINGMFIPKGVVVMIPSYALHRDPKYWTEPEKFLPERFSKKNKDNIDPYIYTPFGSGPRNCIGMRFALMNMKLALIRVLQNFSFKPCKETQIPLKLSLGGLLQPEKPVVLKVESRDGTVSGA

CYP2D6 = biological target: T2, CYP2D6 (Homo sapiens, UniProt P10635); test: CYP inhibition, human liver microsomes; type: in vitro ADME; conditions: probe dextromethorphan, substrate dextromethorphan, read-out: CYP2D6 Inh %
T2 construct: tissue Eurofins protocol ITEMG232; host or cells: human liver microsomes
T2 sequence (P10635 whole entry): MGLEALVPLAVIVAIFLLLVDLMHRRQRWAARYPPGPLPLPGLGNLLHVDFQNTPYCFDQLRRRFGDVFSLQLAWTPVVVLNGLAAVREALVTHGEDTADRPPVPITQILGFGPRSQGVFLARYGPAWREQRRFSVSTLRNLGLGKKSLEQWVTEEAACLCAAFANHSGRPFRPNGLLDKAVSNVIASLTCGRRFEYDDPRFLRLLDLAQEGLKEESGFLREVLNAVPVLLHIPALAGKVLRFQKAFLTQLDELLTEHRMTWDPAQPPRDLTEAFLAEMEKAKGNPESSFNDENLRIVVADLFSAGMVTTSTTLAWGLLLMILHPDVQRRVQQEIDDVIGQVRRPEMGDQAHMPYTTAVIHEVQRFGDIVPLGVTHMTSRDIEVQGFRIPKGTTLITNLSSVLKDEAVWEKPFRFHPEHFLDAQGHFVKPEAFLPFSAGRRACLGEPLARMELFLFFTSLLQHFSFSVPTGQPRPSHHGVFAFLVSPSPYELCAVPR

CYP1A = biological target: T3, CYP1A (Homo sapiens, UniProt P05177); test: CYP inhibition, human liver microsomes; type: in vitro ADME; conditions: probe phenacetin, substrate phenacetin, read-out: CYP1A Inh %
T3 construct: tissue Eurofins protocol ITEMG232; host or cells: human liver microsomes
T3 sequence (P05177 2-516 limits assumed): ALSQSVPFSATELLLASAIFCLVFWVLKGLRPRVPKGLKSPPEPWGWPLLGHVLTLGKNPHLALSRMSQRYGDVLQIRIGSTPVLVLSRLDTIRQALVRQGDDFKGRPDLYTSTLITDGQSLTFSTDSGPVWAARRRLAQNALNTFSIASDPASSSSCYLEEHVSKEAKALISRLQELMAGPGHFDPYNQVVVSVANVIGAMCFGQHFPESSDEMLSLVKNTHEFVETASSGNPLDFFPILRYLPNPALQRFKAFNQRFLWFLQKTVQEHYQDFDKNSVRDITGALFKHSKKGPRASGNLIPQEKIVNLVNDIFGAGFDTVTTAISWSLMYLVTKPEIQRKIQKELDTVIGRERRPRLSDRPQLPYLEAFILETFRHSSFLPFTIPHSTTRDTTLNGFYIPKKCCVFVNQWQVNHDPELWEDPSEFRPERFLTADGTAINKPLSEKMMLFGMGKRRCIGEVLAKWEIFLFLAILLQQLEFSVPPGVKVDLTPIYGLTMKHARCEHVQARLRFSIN

CYP2C8 = biological target: T4, CYP2C8 (Homo sapiens, UniProt P10632); test: CYP inhibition, human liver microsomes; type: in vitro ADME; conditions: probe paclitaxel and amodiaquine, substrates paclitaxel and amodiaquine, read-out: CYP2C8 Inh %
T4 construct: tissue Eurofins protocol ITEMG232; host or cells: human liver microsomes
T4 sequence (P10632 1-490): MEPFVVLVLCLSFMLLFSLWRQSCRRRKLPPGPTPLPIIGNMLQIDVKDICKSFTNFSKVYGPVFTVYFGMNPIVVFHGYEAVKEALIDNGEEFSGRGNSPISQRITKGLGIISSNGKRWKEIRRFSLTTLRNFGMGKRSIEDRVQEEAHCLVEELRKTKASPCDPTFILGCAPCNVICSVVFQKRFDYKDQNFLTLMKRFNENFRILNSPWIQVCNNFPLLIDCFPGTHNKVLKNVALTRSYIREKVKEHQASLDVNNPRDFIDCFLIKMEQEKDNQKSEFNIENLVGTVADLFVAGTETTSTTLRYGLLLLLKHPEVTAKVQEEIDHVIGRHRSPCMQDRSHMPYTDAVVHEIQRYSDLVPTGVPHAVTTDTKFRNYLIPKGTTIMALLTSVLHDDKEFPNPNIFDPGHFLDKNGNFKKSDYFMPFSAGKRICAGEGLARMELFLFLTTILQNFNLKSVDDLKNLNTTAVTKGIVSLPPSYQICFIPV

CYP2C19 = biological target: T5, CYP2C19 (Homo sapiens, UniProt P33261); test: CYP inhibition, human liver microsomes; type: in vitro ADME; conditions: probe omeprazole, substrate omeprazole, read-out: CYP2C19 Inh %
T5 construct: tissue Eurofins protocol ITEMG232; host or cells: human liver microsomes
T5 sequence (P33261 whole entry): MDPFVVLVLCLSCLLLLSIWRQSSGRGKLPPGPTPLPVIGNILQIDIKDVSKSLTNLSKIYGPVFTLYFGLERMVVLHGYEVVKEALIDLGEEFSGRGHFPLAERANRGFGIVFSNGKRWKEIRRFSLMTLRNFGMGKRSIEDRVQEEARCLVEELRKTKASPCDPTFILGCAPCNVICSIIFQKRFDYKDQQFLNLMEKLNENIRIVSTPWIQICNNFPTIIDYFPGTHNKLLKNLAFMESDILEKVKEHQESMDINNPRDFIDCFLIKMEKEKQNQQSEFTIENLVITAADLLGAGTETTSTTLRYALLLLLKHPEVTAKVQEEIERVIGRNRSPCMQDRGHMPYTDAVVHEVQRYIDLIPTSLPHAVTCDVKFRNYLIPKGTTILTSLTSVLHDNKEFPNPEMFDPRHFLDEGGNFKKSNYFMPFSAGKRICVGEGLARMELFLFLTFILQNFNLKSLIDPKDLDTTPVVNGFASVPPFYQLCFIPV

CYP2B6 = biological target: T6, CYP2B6 (Homo sapiens, UniProt P20813); test: CYP inhibition, human liver microsomes; type: in vitro ADME; conditions: probe bupropion, substrate bupropion, read-out: CYP2B6 Inh %
T6 construct: tissue Eurofins protocol ITEMG232; host or cells: human liver microsomes
T6 sequence (P20813 1-491): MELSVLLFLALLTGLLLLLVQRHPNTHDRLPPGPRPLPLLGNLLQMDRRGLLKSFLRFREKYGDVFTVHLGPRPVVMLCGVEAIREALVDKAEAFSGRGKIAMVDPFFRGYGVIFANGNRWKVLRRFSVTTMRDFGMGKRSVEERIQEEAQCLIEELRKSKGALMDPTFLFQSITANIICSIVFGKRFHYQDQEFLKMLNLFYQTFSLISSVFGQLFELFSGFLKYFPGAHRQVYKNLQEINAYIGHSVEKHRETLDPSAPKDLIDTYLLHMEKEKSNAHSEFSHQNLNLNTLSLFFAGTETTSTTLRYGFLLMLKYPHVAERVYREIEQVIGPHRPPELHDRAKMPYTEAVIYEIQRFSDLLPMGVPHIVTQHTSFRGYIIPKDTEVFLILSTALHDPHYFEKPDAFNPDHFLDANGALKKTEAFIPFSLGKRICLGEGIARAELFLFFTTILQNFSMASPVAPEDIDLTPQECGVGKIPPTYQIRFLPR

[1] = Metabolic stability in pooled human liver microsomes; type: in vitro ADME; conditions: for half-life at 1 μM: human, pooled human liver microsomes, human liver microsomes 0.5 mg/mL, test compound 1 μM, 37° C.
[2] = biological target: T7, human recombinant AT1 receptor (Homo sapiens, UniProt P30556); test: Binding to AT1 receptor, radiometric scintillation assay (Eurofins); conditions: single run; 1 and 10 μM; ligand 125I(sar1,Ile8)-AT-II
T7 construct: Eurofins protocol ITEM24
T7 sequence (P30556 1-359): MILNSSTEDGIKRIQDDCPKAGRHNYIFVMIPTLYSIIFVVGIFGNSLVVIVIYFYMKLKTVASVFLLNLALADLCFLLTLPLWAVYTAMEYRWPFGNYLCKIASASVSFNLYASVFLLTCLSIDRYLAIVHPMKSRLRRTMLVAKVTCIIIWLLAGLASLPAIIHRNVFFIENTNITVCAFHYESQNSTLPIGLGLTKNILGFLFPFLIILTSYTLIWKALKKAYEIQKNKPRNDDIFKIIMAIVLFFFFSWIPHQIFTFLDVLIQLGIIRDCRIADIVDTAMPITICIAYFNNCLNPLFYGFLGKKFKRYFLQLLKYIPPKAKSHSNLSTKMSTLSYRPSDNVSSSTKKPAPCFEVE

CYP2C9 = biological target: T8, CYP2C9 (Homo sapiens, UniProt P11712); test: CYP inhibition, human liver microsomes; type: in vitro ADME; conditions: for inhibition at 10 µM: probe diclofenac, substrate diclofenac, human liver microsomes, read-out: CYP2C9 Inh %
T8 construct: tissue Eurofins protocol ITEMG232; host or cells: human liver microsomes
T8 sequence (P11712 whole entry): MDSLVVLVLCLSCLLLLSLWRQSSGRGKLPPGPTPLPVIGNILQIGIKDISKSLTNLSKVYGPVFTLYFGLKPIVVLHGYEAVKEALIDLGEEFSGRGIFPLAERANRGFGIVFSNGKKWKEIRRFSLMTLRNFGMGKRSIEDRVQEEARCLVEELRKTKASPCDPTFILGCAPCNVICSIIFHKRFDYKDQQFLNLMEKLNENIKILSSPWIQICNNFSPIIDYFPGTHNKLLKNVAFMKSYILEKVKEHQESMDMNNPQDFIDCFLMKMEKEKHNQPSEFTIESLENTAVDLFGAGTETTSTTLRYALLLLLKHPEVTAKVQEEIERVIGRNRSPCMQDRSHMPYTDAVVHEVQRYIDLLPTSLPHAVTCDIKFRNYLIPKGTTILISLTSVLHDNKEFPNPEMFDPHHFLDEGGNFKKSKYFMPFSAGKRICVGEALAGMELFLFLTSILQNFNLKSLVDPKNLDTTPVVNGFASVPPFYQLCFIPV

[3] = biological target: T9, human recombinant AT2 receptor (Homo sapiens, UniProt P50052); test: Binding to AT2 receptor, radiometric scintillation assay (Eurofins); conditions: for IC50: read-out: AT2 GraFit IC50; for Ki: seven-point dose-response curve, read-out: AT2R Ki
T9 construct: Eurofins protocol ITEM26
T9 sequence (P50052 1-363): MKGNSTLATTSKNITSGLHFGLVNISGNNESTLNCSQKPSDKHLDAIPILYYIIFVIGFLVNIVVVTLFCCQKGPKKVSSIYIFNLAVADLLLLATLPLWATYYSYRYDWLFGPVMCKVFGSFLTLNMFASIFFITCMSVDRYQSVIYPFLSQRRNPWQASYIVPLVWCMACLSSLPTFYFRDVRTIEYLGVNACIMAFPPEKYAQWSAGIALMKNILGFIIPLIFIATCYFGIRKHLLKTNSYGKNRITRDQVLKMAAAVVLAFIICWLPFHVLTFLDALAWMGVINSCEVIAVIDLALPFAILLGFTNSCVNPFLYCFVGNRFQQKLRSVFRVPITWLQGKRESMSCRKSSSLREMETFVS

[4] = with 1 mM NADPH, read-out: T1/2, + NaDPH
[5] = without NADPH, read-out: T1/2, no NaDPH
[6] = single run, 1, 10, 100 and 1000 nM, ligand 125I CGP 42112A
[7] = found during development, background statement

SMILES	inhibition at 10 µM (CYP3A4&5)	inhibition at 10 µM (CYP3A4)	inhibition at 10 µM (CYP2D6)	inhibition at 10 µM (CYP1A)	inhibition at 10 µM (CYP2C8)	inhibition at 10 µM (CYP2C19)	inhibition at 10 µM (CYP2B6)	half-life at 1 μM [1, 4]	half-life at 1 μM [1, 5]	IC50 [2]	inhibition at 10 µM (CYP2C9)	IC50 [3, 6]	IC50 ([3]; mean average of the runs)	Ki ([3]; ligand 125I CGP 42112A)	inhibition of CYP 3A4 (in words) (CYP3A4; [7])	inhibition of CYP 2C9 (in words) (CYP2C9; [7])	metabolic hydrolysis (in words) [1, 7]
CCNC(=O)NS(=O)(=O)c1sc(CC(C)C)cc1-c1ccc(Cn2ccnc2C(C)(C)C)c(F)c1 [Example 6, 1-[[3-[4-[(2-Tert-butylimidazol-1-yl)methyl]-3-fluoro-phenyl]-5-isobutyl-2-thienyl]sulfonyl]-3-ethyl-urea]	10.8%	23.8%	18.8%	15.8%	77.6%	35.1%	27%	> 1 h	> 1 h		39.7%						
COCCNC(=O)NS(=O)(=O)c1sc(CC(C)C)cc1-c1ccc(Cn2ccnc2C(C)(C)C)cc1 [Example 3]								> 1 h	> 1 h								
CC(C)Cc1cc(-c2ccc(Cn3ccnc3C(C)(C)C)cc2)c(S(=O)(=O)NC(=O)NCc2cccs2)s1 [Example 2]	18%	40.9%	33.6%	-1.8%	81.8%	56.8%	9.6%	0.533 h	> 1 h	2000 nM	64.6%	2.5 nM	2.5 nM	1.25 nM			
CCCCOC(=O)NS(=O)(=O)c1sc(CC(C)C)cc1-c1ccc(Cn2ccnc2)cc1 [Example C21, N-butyloxycarbonyl-3-(4-imidazol-1-ylmethylphenyl)-5-isobutylthiophene-2-sulfon-amide, reference compound]															potent inhibitor	potent inhibitor	rapidly hydrolysed to an inactive sulfonamide metabolite
CC(C)Cc1cc(-c2ccc(Cn3ccnc3C(C)(C)C)cc2)c(S(=O)(=O)NC(=O)NCc2ccco2)s1 [Example 1, Furan-2-ylmethyl-3-[[5-isobutyl-3-[4-[(2-tert-butyl-imidazol-1-yl)methyl]phenyl]-2-thienyl]sulfonyl]urea]	11.8%	11.6%	13.8%	-13.2%	77.8%	49.1%	96.5%	> 1 h	> 1 h	3000 nM	58.4%	2.6 nM and 5.7 nM	4.2 nM	2.8 nM			

Further lines, with some results ahead:

inhibition at 10 µM (CYP3A4&5)	inhibition at 10 µM (CYP3A4)	inhibition at 10 µM (CYP2D6)	inhibition at 10 µM (CYP1A)	inhibition at 10 µM (CYP2C8)	inhibition at 10 µM (CYP2C19)	inhibition at 10 µM (CYP2B6)	half-life at 1 μM [1, 4]	half-life at 1 μM [1, 5]	IC50 [2]	inhibition at 10 µM (CYP2C9)	IC50 [3, 6]	IC50 ([3]; mean average of the runs)	Ki ([3]; ligand 125I CGP 42112A)	inhibition of CYP 3A4 (in words) (CYP3A4; [7])	inhibition of CYP 2C9 (in words) (CYP2C9; [7])	SMILES	metabolic hydrolysis (in words) [1, 7]
16.7%	52.3%	13.8%	20.7%	79.9%	49.1%	50.5%	0.383 h	> 1 h	3100 nM	76.3%	5 nM					CC(C)Cc1cc(-c2ccc(Cn3ccnc3C(C)(C)C)c(F)c2)c(S(=O)(=O)NC(=O)NCc2cccs2)s1 [Example 7, 1-[[3-[4-[(2-Tert-butylimidazol-1-yl)methyl]-3-fluoro-phenyl]-5-isobutyl-2-thienyl]sulfonyl]-3-(2-thienylmethyl)urea]	
16.7%	33.7%	24.3%	-0.5%	79.3%	44.4%	13.8%	> 1 h	> 1 h	3000 nM	43.5%	3.7 nM and 2.1 nM	2.9 nM	1.9 nM			CC(C)Cc1cc(-c2ccc(Cn3ccnc3C(C)(C)C)cc2)c(S(=O)(=O)NC(=O)NCc2ccccn2)s1 [Example 4]	
18.9%	43%	23.2%	34.1%	78.3%	52.1%	24.9%	> 1 h	> 1 h	1800 nM	62.1%	0.44 nM					CC(C)Cc1cc(-c2ccc(Cn3ccnc3C(C)(C)C)c(F)c2)c(S(=O)(=O)NC(=O)NCc2ccccn2)s1 [Example 5, 1-[[3-[4-[(2-Tert-butylimidazol-1-yl)methyl]-3-fluoro-phenyl]-5-isobutyl-2-thienyl]sulfonyl]-3-(2-pyridylmethyl)urea]	
